Measured values taken from PMC6723587 (Toxins, 2019).
Where two headings read alike, the source gives them in different places.

Legend:
[1] = in vivo
[2] = pigs, oral single dose DON3G 56 µg/kg bw; cited from earlier work
[3] = system: human cytosolic beta-glucosidases; details: in vitro incubation; cited from earlier work
[4] = pigs, cited from earlier work
[5] = for the sum of DON, DON3G, 3-ADON and 15-ADON; EFSA; cited from earlier work
[6] = cited from earlier work
[7] = in vivo; remark: listed apart in the source
[8] = oral single dose DON3G 116 µg/kg bw

## CC1=C[C@H]2O[C@@H]3[C@H](O[C@@H]4O[C@H](CO)[C@@H](O)[C@H](O)[C@H]4O)C[C@](C)([C@@]2(CO)[C@H](O)C1=O)[C@]31CO1 [DON3G, deoxynivalenol-3-glucoside]
[1]
  detection in urine: Neither DON3G nor DOM-1 was detected
[2]
  detection in systemic plasma and vena porta plasma: could not be detected
[3]
  hydrolysis by human cytosolic beta-glucosidases: did not hydrolyse
[4]; [8]
  part of the dose excreted in urine during the first 8 h: approximately 2.5%
  part of the dose excreted in urine during the rest of the 24-hour collection period: 1%
[4]
  presence in urine after oral administration: found in urine
[5]
  tolerable daily intake (group-TDI): 1 µg/kg body weight (bw)/day
[6]; single dose of DON3G
  detectability in urine twelve hours after administration: not detectable
[7]
  urine sample with the maximum excreted amount: first voided urine sample
[7]; po
  Fabs (fraction absorbed): 0.53
  Ke (excretion rate constant): 0.018
  maximum percentage absorbed in the volunteers: 84%
  part absorbed as glucoside, % of the oral dose of DON3G: < 5%
  percentage absorbed, variation among the volunteers: 29-84%
  total amount excreted unchanged in urine, % of the administered dose: 1-5%

## CC(=O)O[C@@H]1C[C@]2(C)[C@@]3(CO)[C@H](O)C(=O)C(C)=C[C@H]3O[C@H]1[C@@]21CO1 [3-ADON, 3-acetyldeoxynivalenol]
[5]
  tolerable daily intake (group-TDI): 1 µg/kg body weight (bw)/day

## CC(=O)OC[C@]12[C@H](O)C(=O)C(C)=C[C@H]1O[C@@H]1[C@H](O)C[C@@]2(C)[C@]12CO2 [15-ADON, 15-acetyldeoxynivalenol]
[5]
  tolerable daily intake (group-TDI): 1 µg/kg body weight (bw)/day

## C=C1[C@@H]2O[C@@H]3C=C(C)C(=O)[C@@H](O)[C@]3(CO)[C@@]1(C)C[C@H]2O [DOM-1, de-epoxy-deoxynivalenol]
[1]
  detection in urine: Neither DON3G nor DOM-1 was detected
[6]; after administration of DON3G
  part of total DON3G recovered in urine: approximately 7%

## CC1=C[C@H]2O[C@@H]3[C@H](O)C[C@](C)([C@@]2(CO)[C@H](O)C1=O)[C@]31CO1 [DON, deoxynivalenol]
[1]; both, human, po
  Fabs (fraction absorbed): 0.56
  maximum percentage absorbed in the volunteers: 98%
  percentage absorbed, variation among the volunteers: 30-98%
[5]
  tolerable daily intake (group-TDI): 1 µg/kg body weight (bw)/day
